From the supplement of paper PMC11061612

Tests used:
Assay in all cases: combination Emax (second highest fraction inhibited in the dose matrix, 72 h); higher = more inhibition; extreme values may be limits of the assay
[1] = tested on: MOLT-4 (T-Lymphoblastic Leukemia)
Procedure, shortened: (§1)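 Cell lines in DMEM/F12 or RPMI with 10% FBS were plated in 1536-well plates, held 24 hours at 37°C, 5% CO2, then given two-drug dose matrices for 72 hours (DMSO typically 0.2%). Viability was read by CellTiter-Glo 2.0 luminescence and scaled as inhibition from 0 (vehicle wells) to 1 (blank wells). Combination Emax is the second-highest inhibition in the matrix; Bliss excess is observed combination effect minus expected EA + EB − EA·EB, EA and EB being single-agent effects.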

[2] = tested on: ME-180 (Cervical Carcinoma)
Procedure, shortened: as §1

[3] = tested on: Ca-Ski (Cervical Carcinoma)
Procedure, shortened: as §1

[4] = tested on: NCI-H522 (Lung Adenocarcinoma)
Procedure, shortened: as §1

[5] = tested on: ML-2 (Acute Myeloid Leukemia)
Procedure, shortened: as §1

[6] = tested on: SK-LU-1 (Lung Adenocarcinoma)
Procedure, shortened: as §1

Hey (Ovarian Carcinoma) = tested on: Hey (Ovarian Carcinoma)
Procedure, shortened: as §1

[7] = tested on: OACM5-1 (Esophageal Adenocarcinoma)
Procedure, shortened: as §1

[8] = tested on: NCI-H1092 (Small Cell Lung Carcinoma)
Procedure, shortened: as §1

COLO-679 (Melanoma) = tested on: COLO-679 (Melanoma)
Procedure, shortened: as §1

[9] = tested on: EJM (Plasma Cell Myeloma)
Procedure, shortened: as §1

[10] = tested on: NCI-H1993 (Lung Adenocarcinoma)
Procedure, shortened: as §1

[11] = tested on: HCC1500 (Breast Carcinoma)
Procedure, shortened: as §1

[12] = tested on: ALL-SIL (T-Lymphoblastic Leukemia)
Procedure, shortened: as §1

[13] = tested on: KOPN-8 (B-Lymphoblastic Leukemia)
Procedure, shortened: as §1

[14] = tested on: KGN (Other Solid Carcinomas)
Procedure, shortened: as §1

[15] = tested on: MDA-MB-453 (Breast Carcinoma)
Procedure, shortened: as §1

[16] = tested on: A4-Fuk (B-Lymphoblastic Leukemia)
Procedure, shortened: as §1

[17] = tested on: OE33 (Esophageal Adenocarcinoma)
Procedure, shortened: as §1

[18] = tested on: MV-4-11 (Acute Myeloid Leukemia)
Procedure, shortened: as §1

SMILES: CN(C)CCCOc1ccc(-c2ccc3ncc4c(c3c2)n(C2CCOCC2)c(=O)n4C)cn1 [AZD0156] + O=C(c1cc(Cc2n[nH]c(=O)c3ccccc23)ccc1F)N1CCN(C(=O)C2CC2)CC1 [Olaparib] (first compound max 3 µM, partner max 3 µM)
- combination Emax [1]: 0.636
- combination Emax [2]: 0.348
- combination Emax [3]: 0.304
- combination Emax [4]: 0.258
- combination Emax [5]: 0.478
- combination Emax [6]: 0.334
- combination Emax (Hey (Ovarian Carcinoma)): 0.408
- combination Emax [7]: 0.327
- combination Emax [8]: 0.304
- combination Emax (COLO-679 (Melanoma)): 0.225
- combination Emax [9]: 0.341
- combination Emax [10]: 0.498
- combination Emax [11]: 0.403
- combination Emax [12]: 0.175
- combination Emax [13]: 0.78
- combination Emax [14]: 0.62
- combination Emax [15]: 0.286
- combination Emax [16]: 0.553
- combination Emax [17]: 0.207

SMILES: C=CCn1c(=O)c2cnc(Nc3ccc(N4CCN(C)CC4)cc3)nc2n1-c1cccc(C(C)(C)O)n1 [AZD1775] + CCc1c2c(nc3ccc(O)cc13)-c1cc3c(c(=O)n1C2)COC(=O)[C@]3(O)CC [SN-38] (first compound max 1 µM, partner max 0.3 µM)
- combination Emax [1]: 1
- combination Emax [2]: 0.973
- combination Emax [3]: 1
- combination Emax [4]: 0.7
- combination Emax [5]: 1
- combination Emax [6]: 0.645
- combination Emax (COLO-679 (Melanoma)): 0.632
- combination Emax [10]: 0.739
- combination Emax [14]: 0.833
- combination Emax [18]: 0.999
- combination Emax [15]: 0.696
- combination Emax [16]: 1
- combination Emax [17]: 0.734

SMILES: CC1(C)CCC(CN2CCN(c3ccc(C(=O)NS(=O)(=O)c4ccc(NCC5CCOCC5)c([N+](=O)[O-])c4)c(Oc4cnc5[nH]ccc5c4)c3)CC2)=C(c2ccc(Cl)cc2)C1 [Venetoclax] + CS(=O)(=O)CCNCc1ccc(-c2ccc3ncnc(Nc4ccc(OCc5cccc(F)c5)c(Cl)c4)c3c2)o1 [Lapatinib] (first compound max 1 µM, 7x7, partner max 10 µM)
- combination Emax [1]: 0.502
- combination Emax [2]: 0.427
- combination Emax [3]: 0.503
- combination Emax [4]: 0.153
- combination Emax [5]: 0.977
- combination Emax [6]: 0.183
- combination Emax (COLO-679 (Melanoma)): 0.0296
- combination Emax [10]: 0.262
- combination Emax [14]: 0.4
- combination Emax [18]: 1
- combination Emax [15]: 0.419
- combination Emax [16]: 0.832
- combination Emax [17]: 0.485

SMILES: CS(=O)(=O)CCNCc1ccc(-c2ccc3ncnc(Nc4ccc(OCc5cccc(F)c5)c(Cl)c4)c3c2)o1 [Lapatinib] + Cn1cnc2c(F)c(Nc3ccc(Br)cc3Cl)c(C(=O)NOCCO)cc21 [Selumetinib] (first compound max 10 µM, 7x7, partner max 10 µM)
- combination Emax [1]: 0.501
- combination Emax [2]: 0.476
- combination Emax [3]: 0.671
- combination Emax [4]: 0.257
- combination Emax [5]: 0.715
- combination Emax [6]: 0.377
- combination Emax (COLO-679 (Melanoma)): 0.749
- combination Emax [10]: 0.73
- combination Emax [14]: 0.535
- combination Emax [18]: 0.642
- combination Emax [15]: 0.389
- combination Emax [16]: 0.979
- combination Emax [17]: 0.743

SMILES: Cc1c2c(nn1C)CSCc1cc(n(C)n1)CSc1cc(c3ccccc3c1)OCCCc1c(C(=O)O)n(C)c3c-2c(Cl)ccc13 [AZD5991] + CC(=O)O[C@H]1C(=O)[C@@]2(C)[C@H]([C@H](OC(=O)c3ccccc3)[C@]3(O)C[C@H](OC(=O)[C@H](O)[C@@H](NC(=O)c4ccccc4)c4ccccc4)C(C)=C1C3(C)C)[C@]1(OC(C)=O)CO[C@@H]1C[C@@H]2O [Paclitaxel] (first compound max 1 µM, 7x7, partner max 3 µM)
- combination Emax [1]: 0.991
- combination Emax [2]: 0.7
- combination Emax [3]: 0.919
- combination Emax [4]: 0.969
- combination Emax [5]: 1
- combination Emax [6]: 0.39
- combination Emax (COLO-679 (Melanoma)): 0.565
- combination Emax [10]: 0.863
- combination Emax [14]: 0.916
- combination Emax [18]: 1
- combination Emax [15]: 0.92
- combination Emax [16]: 1
- combination Emax [17]: 0.524

SMILES: C=CCn1c(=O)c2cnc(Nc3ccc(N4CCN(C)CC4)cc3)nc2n1-c1cccc(C(C)(C)O)n1 [AZD1775] + Nc1ccn([C@@H]2O[C@H](CO)[C@@H](O)C2(F)F)c(=O)n1 [Gemcitabine] (first compound max 1 µM, partner max 0.3 µM)
- combination Emax [1]: 1
- combination Emax [2]: 0.94
- combination Emax [3]: 0.828
- combination Emax [4]: 0.608
- combination Emax [5]: 1
- combination Emax [6]: 0.457
- combination Emax (COLO-679 (Melanoma)): 0.76
- combination Emax [10]: 0.905
- combination Emax [14]: 0.892
- combination Emax [18]: 1
- combination Emax [15]: 0.539
- combination Emax [16]: 0.965
- combination Emax [17]: 0.616

SMILES: CS(=O)(=O)CCNCc1ccc(-c2ccc3ncnc(Nc4ccc(OCc5cccc(F)c5)c(Cl)c4)c3c2)o1 [Lapatinib] + NC1(c2ccc(-c3nc4ccn5c(=O)[nH]nc5c4cc3-c3ccccc3)cc2)CCC1 [MK-2206] (first compound max 10 µM, 7x7, partner max 10 µM)
- combination Emax [1]: 0.938
- combination Emax [2]: 0.758
- combination Emax [3]: 0.758
- combination Emax [4]: 0.322
- combination Emax [5]: 0.785
- combination Emax [6]: 0.335
- combination Emax [8]: 0.791
- combination Emax (COLO-679 (Melanoma)): 0.618
- combination Emax [10]: 0.68
- combination Emax [11]: 0.901
- combination Emax [13]: 0.936
- combination Emax [14]: 0.85
- combination Emax [18]: 0.961
- combination Emax [15]: 0.801
- combination Emax [16]: 0.971
- combination Emax [17]: 0.849
